Where two headings read alike, the source gives them in different places.
How the values were obtained:
[1] = Hygroscopicity of solid forms (statement only); format: physicochemical
[2] = 25° C. ± 2° C. 60% RH ± 5RH, 1 Month
[3] = 25° C. ± 2° C. 60% RH ± 5RH, 3 Months
[4] = 25° C. ± 2° C. 60% RH ± 5RH, Initial
[5] = 40° C. ± 2° C. 75% RH ± 5RH, 1 Month
[6] = 40° C. ± 2° C. 75% RH ± 5RH, 3 Months
[7] = 40° C. ± 2° C. 75% RH ± 5RH, Initial

hygroscopicity [1] | % Total Impurities [2] | % Water content [2] | Description [2] | % Total Impurities [3] | % Water content [3] | Description [3] | % Total Impurities [4] | % Water content [4] | Description [4] | PXRD [4] | % Total Impurities [5] | % Water content [5] | Description [5] | % Total Impurities [6] | % Water content [6] | Description [6] | % Total Impurities [7] | % Water content [7] | Description [7] | Compound | further results
non-hygroscopic | 0.46% | 0.10% | White | 0.39% | 0.19% | White | 0.38% | 0.13% | White | Crystalline | 0.45% | 0.16% | White | 0.45% | 0.29% | White | 0.38% | 0.13% | White | C=CC(=O)N1CCC[C@@H](n2nc(-c3ccc(Oc4ccccc4)cc3)c3c(N)ncnc32)C1 [Form D18, Ibrutinib] | Octanoic acid content (%) [2]: 24.70%; Octanoic acid content (%) [3]: 25.57%; Octanoic acid content (%) [4]: 25.24%; Octanoic acid content (%) [5]: 24.70%; Octanoic acid content (%) [6]: 24.99%; Octanoic acid content (%) [7]: 25.24%; PXRD [7]: Crystalline
non-hygroscopic | 0.42% | 0.20% | Off-White | 0.42% | 0.09% | Off-White | 0.41% | 0.19% | Off-White | Crystalline | 0.49% | 0.13% | Off-White | 0.50% | 0.11% | Off-White | 0.41% | 0.19% | Off-White | C=CC(=O)N1CCC[C@@H](n2nc(-c3ccc(Oc4ccccc4)cc3)c3c(N)ncnc32)C1 [Form D19, Ibrutinib] | Hexanoic acid content (%) [2]: 21.73%; Hexanoic acid content (%) [3]: 21.24%; Hexanoic acid content (%) [4]: 23.13%; Hexanoic acid content (%) [5]: 21.48%; Hexanoic acid content (%) [6]: 20.79%; Hexanoic acid content (%) [7]: 23.13%; PXRD [7]: Crystalline

Reference: patent publication US20210002282A1 (DR. REDDY'S LABORATORIES LIMITED, priority 2018, published 2021)
